Series [1] in a line: Solubility in water. The class given is physicochemical.
Series [2] has as its system HPB-MLT cells. The series is described as follows: Cytotoxicity analysis (CellTiter 96 AQueous cell proliferation assay). The class given is cell-based. Here is the method:
2.5×10^4 HPB-MLT cells were mixed with the appropriate concentration of antiCD3 CSANs in a total volume of 90 uL and incubated at 37° C. for one hour. […] Cell viability was determined using CellTiter 96 AQueous Non-Radioactive Cell Proliferation Assay (Promega).

Series [3] has as its system DHFR. Conditions: cited from earlier work.
In series [4] the test system is HPB-MLT cells. The series is described as follows: Fluorescence confocal microscopy of internalization. The class given is cell-based. Conditions: 37° C., 1 hr. How it is done:
BisMTX-FITC (or BisMTX-PG) and the appropriate DHFR fusion protein were mixed (250 nM) and added to 0.5×10^6 HPB-MLT cells at either 4 or 37° C. for 1 hr in RPMI media. Cells were then pelleted by centrifugation (400×g, 5 min). After being washed twice with PBS (phosphate buffered saline) cells were incubated on Poly-Prep slides coated with poly-L-Lysine (Sigma) at 4 or 37° C. for 30 mins. Cells were then fixed with 4% paraformaldehyde solution for 10 mins and washed thrice with PBS. Finally, cells were treated with ProLong Gold Antifade reagent with DAPI (Invitrogen), a cover slip was applied.
After overnight incubation, images were taken within inner sections of the cells by sequential scanning using a fluorescence confocal microscopy using an Olympus FluoView 1000 BX2 Upright Confocal microscope. Resulting images are the compression of 3-5 z-axis slices. For disassembly experiments after the initial one hour incubation cells were washed twice with PBS before being resuspended in media containing 2 mM trimethoprim, 0.5 mM pyrimethamine or DMSO for three hours at 37° C. after which time they were processed as above. […]
0.5×10^6 HPB-MLT cells were treated with FITC or BODIPY labeled constructs (1 μM) at either 4 or 37° C. for 1 hr in RPMI media. […] After overnight incubation they were imaged by fluorescence confocal microscopy using a Olympus FluoView 1000 BX2 Upright Confocal microscope. […]

For series [5], the system named is HPB-MLT cells. The series can be described thus: Flow cytometry binding to CD3+ cells. It counts as cell-based. Conditions: 4° C., 1 hr. How it is done:
1×10^6 HPB-MLT (or Raji) cells were treated with BisMTX-FITC containing CSAN constructs at the required concentrations at 4° C. for 1 hr in PBS buffer (containing 0.05% BSA and 0.1% sodium azide). Cells were centrifuged (400×g, 10 min), washed twice with PBS/BSA/sodium azide buffer before being resuspended in the same buffer. Their fluorescence was analyzed with a FACSCalibur flow cytometer (BD Biosciences). For competition experiments, HPB-MLT cells were incubated with 40 nM UCHT-1 on ice for 10 mins prior to addition BisMTX-FITC CSAN constructs anti-CD3 constructs (100 nM) followed by washing as above. For disassembly experiments HPB-MLT cells were treated with 150 nM CSANs or 3.95 nM UCHT-1 FITC for 1 hour at 37° C. before being washed twice with RPMI media and finally resuspended in media. […] Samples were stored at 4° C. in the dark until analyzed.
1×10^6 HPB-MLT cells were treated with FITC or BODIPY labeled constructs (1/0.5/0.1 μM) at 4° C. for 1 hr in PBS buffer (containing 0.05% BSA and 0.1% sodium azide). Cells were pelleted (400×g, 10 min), washed twice, and finally resuspended in the supplemented PBS and their fluorescence was analyzed with a FACSCalibur flow cytometer (BD Biosciences). […] After 1 hr incubation cells were washed, resuspended and analyzed by flow cytometry. […]
For orientation: A flow cytometer gives signals particle by particle.

pIC50: −log10 of the molar value. Like-named read-outs stand apart in the source and are kept apart here. {bisMTX} = bis-methotrexate conjugate; {Fluorescein} = fluorescein label

The values below come from patent US9486535B2, “Methods of making and using nanostructures” (REGENTS OF THE UNIVERSITY OF MINNESOTA, priority 2012, dated 2016).

As to `CN(Cc1cnc2nc(N)nc(N)c2n1)c1ccc(C(=O)N[C@@H](CCC(=O)NCCCCCN(CCCCCNC(=O)CC[C@@H](NC(=O)c2ccc(N(C)Cc3cnc4nc(N)nc(N)c4n3)cc2)C(=O)O)CCOCCOCCN)C(=O)O)cc1` [bis-MTX-NH2], the “solubility in water” value in series [1] was “water soluble”.

For bis-methotrexate [bisMTX], the “toxicity to HPB-MLT cells” value in series [2] was “non-toxic”. Further, in series [2] (72 h; read-out: IC50 (inhibition of cellular proliferation)), the pIC50 is less than 4.70.

Take `CN(Cc1cnc2nc(N)nc(N)c2n1)c1ccc(C(=O)N[C@@H](CCC(=O)O)C(=O)O)cc1` [MTX, methotrexate]: the “enhancement of the affinity of MTX for DHFR by NADPH” value in series [3] is “at least 100 fold”. Besides, the pIC50 in series [2] (72 h, read-out: IC50 (inhibition of cellular proliferation)) is 6.22. In series [2] (72 h; read-out: IC80 (inhibition of cellular proliferation)), the IC80 was greater than 50 µM.

Take `CN(Cc1cnc2nc(N)nc(N)c2n1)c1ccc(C(=O)N[C@@H](CCC(=O)NCCCCCN(CCCCCNC(=O)CC[C@@H](NC(=O)c2ccc(N(C)Cc3cnc4nc(N)nc(N)c4n3)cc2)C(=O)O)CCOCCOCCNC(=S)Nc2cccc(-c3c4ccc(=O)cc-4oc4cc(O)ccc34)c2C(=O)O)C(=O)O)cc1` [bisMTX-FITC]: the “internalization (confocal)” value in series [4] was “no observable internalized fluorescence”.

In the case of “5′ Fluorescein-TGTCATATTCCTGGATCC-Bis-MTX 3′ (5' {Fluorescein}, 3' {bisMTX}, sugars by position and backbone not given here; further chemistry not fully specified) [bis-MTX oligo FITC, bis-MTX oligo conjugate labelled with fluorescein]”, the “internalization (confocal)” value in series [4] is “no increased cellular fluorescence”. The “cell fluorescence relative to unstained/untreated cells (binding)” value in series [5] is reported as “only a small increase in fluorescence”.
